Our source for the EC50 values is US20220251084A1, “PROGRANULIN MODULATORS AND METHODS OF USING THE SAME” (ARKUDA THERAPEUTICS, priority 2019, published 2022).

Where only a bound is given, the exact number is not on record here.

For the first test, the system named is progranulin (PGRN) secretion, BV-2 cells. Kind of test: PGRN assay: progranulin induction cellular assay (ELISA of secreted mouse PGRN). It is filed as cell-based.
Settings: not given
The protocol: Cellular Assays: To measure the efficacy of compounds, a progranulin induction cellular assay in mouse primary microglia (pMG), primary cortical neurons, and BV-2 cell lines is used. BV-2 cells are split the day before plating into a 96 well plate format at approximately 80%. Cells should be plated the day before and allowed for 1 hour attachment period and for 16 hour incubation. […] Standard ELISA kits to measure PGRN are available from vendors such as Adipogen, R&D, and Biovendor.
(ELISA stands for enzyme-linked immunosorbent assay.)
The EC50 is the concentration that produces a half-maximal response. A higher EC50 goes with a less potent agent. Consider `O=C(O[C@H]1CN2CCC1(F)CC2)N1CCc2ccccc2[C@@H]1c1ccc(F)cc1` (single isomer, unassigned) [Compound 2127], for which a half-maximal effect (EC50) was put at 1.86 µM.

Still in this test, the particulars now being: Mus musculus, BV-2.
Compound `COC(=O)c1ccc2c(c1)CCN(C(=O)O[C@@H]1CN3CCC1CC3)[C@@H]2c1ccc(F)cc1` [Compound 2087] returned an EC50 above 10 µM.
Take `CNC(=O)c1ccc2c(c1)[C@@H](c1ccc(F)cc1)N(C(=O)O[C@@H]1CN3CCC1CC3)CC2` [Compound 2066]: the EC50 was above 10 µM.
Compound `O=C(O[C@@H]1CN2CCC1CC2)N1CCc2ccccc2C1c1ccc2[nH]c(=O)sc2c1` (stereo partly drawn) [Compound 2011] returned an EC50 above 10 µM.

The same test, now with this note: Mus musculus, BV-2, PGRN assay, Table C; secreted mouse PGRN in cell culture medium, ELISA.
In the case of `O=C(OCC12CCN(CC1)CC2)N1CCc2ccccc2[C@@H]1c1ccc(OCc2ncccn2)cc1` [Compound 2155], the EC50 is above 10 µM.
`O=C(N[C@@H]1CCCNC1)N1CCc2ccccc2[C@@H]1c1ccc(F)cc1` [Compound 2172]: the EC50 was determined as 0.43 µM.
In the case of `COC(=O)c1ccc2c(c1)[C@@H](c1ccc(F)cc1)N(C(=O)OCC13CCN(CC1)CC3)CC2` [Compound 2045], the EC50 was above 10 µM.
The compound `C#CCOc1ccc2c(c1)CCN(C(=O)OCC13CCN(CC1)CC3)[C@H]2c1ccc(F)cc1` [Compound 2078] registered an EC50 of 5.35 µM.
The same measure, in the same setting: the figure for `CN1CC2CCC(C1)C2OC(=O)N1CCc2ccccc2[C@@H]1c1ccc(F)cc1` (single isomer, unassigned) [Compound 2093] is 0.379 µM; for `O=C(NCC12CCN(CC1)CC2)N1CCc2ccccc2[C@@H]1c1ccc(F)cc1` [Compound 2178] it is 0.59 µM.
Consider `CS(=O)(=O)c1ccc2c(c1)[C@@H](c1ccc(F)cc1)N(C(=O)N[C@@H]1CN3CCC1CC3)CC2` [Compound 2057], for which the EC50 is above 10 µM.
`CN1C[C@H]2CC[C@@H](OC(=O)N3CCc4ccccc4[C@@H]3c3ccc(F)cc3)[C@H]2C1` (relative stereo) [Compound 2061, (1 S)-(rel-(3′aR,6′aS)-2′-methyloctahydrocyclopenta[c]pyrrol-4-yl)-1-(4-fluorophenyl)-3,4-dihydroisoquinoline-2(1H)-carboxylate] registered an EC50 of 0.321 µM.
Compound `C#CCOc1ccc2c(c1)CCN(C(=O)NCC13CCN(CC1)CC3)[C@H]2c1ccc(F)cc1` [Compound 2084] had an EC50 above 10 µM.
`CO[C@@H](CC12CCN(CC1)CC2)C(=O)N1CCc2ccccc2[C@@H]1c1ccc(F)cc1` [Compound 2027] showed an EC50 above 10 µM.
With `C#CCOc1ccc2c(c1)CCN(C(=O)N[C@@H]1CN3CCC1CC3)[C@H]2c1ccc(F)cc1` [Compound 2063], the EC50 was above 10 µM.
For the compound `O=C(OCC12CCN(CC1)CC2)N1CCc2ccccc2[C@@H]1c1cccc(F)c1F` [Compound 2112], the EC50 was 8.27 µM. That is a single-digit micromolar value.
Regarding `C#CCOc1ccc2c(c1)[C@H](c1ccc(F)cc1)N(C(=O)NCC13CCN(CC1)CC3)CC2` [Compound 2192, (S)-1-(4-fluorophenyl)-7-(prop-2-yn-1-yloxy)-N-(quinuclidin-4-ylmethyl)-3,4-dihydroisoquinoline-2(1H)-carboxamide], the EC50 was above 10 µM.
In turn, `CN1C2CCC1[C@H](OC(=O)N1CCc3ccccc3[C@H]1c1ccc(F)cc1)CC2` (stereo partly drawn) [Compound 2017] displayed a half-maximal effective concentration (EC50) of 0.722 µM.
In the case of `O=C(Nc1ccncc1)N1CCc2ccccc2[C@@H]1c1ccc(F)cc1` [Compound 2151], the EC50 turned out to be 1.16 µM.
On the same count and under the same terms, for `CN1CCC(COC(=O)N2CCc3ccccc3[C@@H]2c2ccc(F)cc2F)CC1` [Compound 2105] the value was 1.07 µM.
Consider `O=C(NCC1CCNCC1)N1CCc2ccccc2[C@@H]1c1ccc(F)cc1` [Compound 2165], for which the EC50 was above 10 µM.
With `CN1CCO[C@H](CC(=O)N2CCc3ccccc3[C@@H]2c2ccc(F)cc2)C1` [Compound 2003], the EC50 stood at 1.13 µM.
`O=C(CCC1CCNCC1)N1CCc2ccccc2[C@@H]1c1ccc(F)cc1` [Compound 2184, (S)-1-(1-(4-fluorophenyl)-3,4-dihydroisoquinolin-2(1H)-yl)-3-(piperidin-4-yl)propan-1-one] displayed an EC50 above 10 µM.
`CN1CC2CCC(C1)C2OC(=O)N1CCc2ccccc2[C@@H]1c1ccc(F)cc1` (stereo in doubt) [Compound 2094, (1S)-3-methyl-3-aza-bicyclo[3.2.1]octan-8-yl 1-(4-fluorophenyl)-3,4-dihydroisoquinoline-2(1H)-carboxylate]: it took 7.22 µM to reach a half-maximal effect (EC50).
The same measure, in the same setting: the figure for `O=C(OCC1CCN(CC(F)(F)F)CC1)N1CCc2ccccc2[C@@H]1c1ccc(F)cc1` [Compound 2107] is above 10 µM; for `CN1CCC(COC(=O)N2CCc3ccccc3[C@H]2c2cc(F)cc(F)c2)CC1` [Compound 2109] it is above 10 µM; for `O=C(OCCC12CCN(CC1)CC2)N1CCc2ccccc2[C@@H]1c1ccc(F)cc1` [Compound 2130, 2-(quinuclidin-4-yl)ethyl (S)-1-(4-fluorophenyl)-3,4-dihydroisoquinoline-2(1H)-carboxylate] it is above 3.16 µM.
The compound `CN(CC12CCN(CC1)CC2)C(=O)N1CCc2ccccc2[C@@H]1c1ccc(F)cc1` [Compound 2013] registered an EC50 above 10 µM.
On to `C#CCOc1ccc2c(c1)[C@H](c1ccc(F)cc1)N(C(=O)OCC13CCN(CC1)CC3)CC2` [Compound 2052, (S)-quinuclidin-4-ylmethyl 1-(4-fluorophenyl)-7-(prop-2-ynyloxy)-3,4-dihydroisoquinoline-2(1H)-carboxylate], for which the EC50 came to 6.82 µM.
As for `CN1CC2COC[C@H](C1)C2OC(=O)N1CCc2ccccc2[C@@H]1c1ccc(F)cc1` (stereo partly drawn) [Compound 2144, (S)-((1R,5S,9r)-7-methyl-3-oxa-7-azabicyclo[3.3.1]nonan-9-yl) 1-(4-fluorophenyl)-3,4-dihydroisoquinoline-2(1H)-carboxylate], the EC50 was determined as 1.34 µM.

The same test, now with this note: Mus musculus, BV-2, PGRN assay, Table D; secreted mouse PGRN in cell culture medium, ELISA.
With `CN1CCC(C2(OC(=O)N3CCc4ccccc4[C@@H]3c3ccc(F)cc3)CC2)CC1` [Compound 2215], the response was half-maximal at 2.7 µM (EC50).
On the same count and under the same terms, for `O=C(O[C@@H]1CNCC1(F)F)N1CCc2ccccc2[C@@H]1c1ccc(F)cc1` [Compound 2242] the value was 3.95 µM; for `NC[C@H]1CN(C(=O)N2CCc3ccccc3[C@@H]2c2ccc(F)cc2)CCO1` [Compound 2303], 0.329 µM; for `CN1CC(CNC(=O)N2CCc3ccccc3[C@@H]2c2ccc(F)cc2)C1` [Compound 2282], above 10 µM.
Same read-out and setting: the figure for `CN1C[C@H](NC(=O)N2CCc3ccccc3[C@@H]2c2ccc(F)cc2)C(F)(F)C1` [Compound 2294, (S)—N—((S)-4,4-difluoro-1-methylpyrrolidin-3-yl)-1-(4-fluorophenyl)-3,4-dihydroisoquinoline-2(1H)-carboxamide] is above 10 µM.
As for `CN1CC[C@@H](N(C)C(=O)N2CCc3ccccc3[C@@H]2c2ccc(F)cc2)C1` [Compound 2265], the EC50 turned out to be 0.286 µM.
In turn, `CN1CC[C@H](N(C)C(=O)N2CCc3ccccc3[C@@H]2c2ccc(F)cc2)C1` [Compound 2270, (S)-1-(4-fluorophenyl)-N-methyl-N—((S)-1-methylpyrrolidin-3-yl)-3,4-dihydroisoquinoline-2(1H)-carboxamide] displayed an EC50 of 0.515 µM.
`O=C(O[C@H]1CNCC12CC2)N1CCc2ccccc2[C@@H]1c1ccc(F)cc1` (stereo in doubt) [Compound 2309, 5-azaspiro[2.4]heptan-7-yl-(1 S)-1-(4-fluorophenyl)-3,4-dihydroisoquinoline-2(1H)-carboxylate] gave an EC50 of 0.6 µM.
In turn, `O=C(N[C@H]1CCNC1)N1CCc2ccccc2[C@@H]1c1ccc(F)cc1` [Compound 2222] yielded an EC50 of 0.94 µM. Compared with the last compound, the EC50 is about 1.6-fold higher.
Regarding `CN1C[C@H](NC(=O)N2CCc3ccccc3[C@H]2c2ccc(F)cc2)C2(CC2)C1` [Compound 2316], the EC50 was 0.453 µM.
For `O=C(OC[C@@H]1CCNC1)N1CCc2ccccc2[C@@H]1c1ccc(F)cc1` [Compound 2230], the response was half-maximal at 1.07 µM (EC50).
Regarding `CC1(C)CNC[C@H]1OC(=O)N1CCc2ccccc2[C@@H]1c1ccc(F)cc1` [Compound 2292], a half-maximal response (EC50) required 0.431 µM. Against the preceding compound, the EC50 is about 2.5-fold lower.
`O=C(NC[C@H]1CCCNC1)N1CCc2ccccc2[C@@H]1c1ccc(F)cc1` (single isomer, unassigned) [Compound 2220] gave an EC50 of 5.5 µM.
As for `O=C(N[C@H]1CNCCOC1)N1CCc2ccccc2[C@H]1c1ccc(F)cc1` (single isomer, unassigned) [Compound 2278], a half-maximal response (EC50) required 0.439 µM.
Same read-out and setting: the figure for `CN1C[C@H](N(C)C(=O)N2CCc3ccccc3[C@@H]2c2ccc(F)cc2)C(F)(F)C1` [Compound 2299, (S)—N—((S)-4,4-difluoro-1-methylpyrrolidin-3-yl)-1-(4-fluorophenyl)-N-methyl-3,4-dihydroisoquinoline-2(1H)-carboxamide] is above 10 µM; for `CN(C(=O)N1CCc2ccccc2[C@@H]1c1ccc(F)cc1)[C@H]1CCNC1` [Compound 2248] it is 1.24 µM; for `CN1C[C@@H](NC(=O)N2CCc3ccccc3[C@@H]2c2ccc(F)cc2)C(F)(F)C1` [Compound 2293, (S)—N—((R)-4,4-difluoro-1-methylpyrrolidin-3-yl)-1-(4-fluorophenyl)-3,4-dihydroisoquinoline-2(1H)-carboxamide] it is above 10 µM.
As for `CN1C[C@@H](NC(=O)N2CCc3ccccc3[C@@H]2c2ccc(F)cc2)C2(CC2)C1` (single isomer, unassigned) [Compound 2317], the EC50 stood at 9.74 µM.

The same test, now with this note: PGRN assay, Table C; secreted mouse PGRN in cell culture medium, ELISA.
Turning to `O=C(OC1[C@@H]2CC3C[C@@H]1CN(C3)C2)N1CCc2ccccc2[C@@H]1c1ccc(F)cc1` (stereo partly drawn) [Compound 2097], a half-maximal effect (EC50) was put at 2.82 µM.

The same test, now with this note: PGRN assay, Table D; secreted mouse PGRN in cell culture medium, ELISA.
`CN(C(=O)N1CCc2ccccc2[C@H]1c1ccc(F)cc1)[C@H]1CCNC1` (single isomer, unassigned) [Compound 2249]: the EC50 was above 10 µM.
Consider `CN(C(=O)N1CCc2ccccc2[C@H]1c1ccc(F)cc1)[C@H]1CCNC1` [Compound 2254], for which the EC50 is 2.91 µM.
